Data: patent US9695119B2, “Methionine analogs and methods of using same” (Bioxiness Pharmaceuticals, Inc., priority 2008, dated 2017)
Read-outs that look alike come from different tables or passages of the source.

Legend:
[1] = molecular target: E. coli Methionyl-tRNA synthetase (Escherichia coli, UniProt P00959); experiment: Enzymatic aminoacylation tRNA charging assay; assay type: biochemical
Experimental: The assay system is as described by Hartman M et al, 2006 Enzymatic aminoacylation of tRNA with unnatural amino acids. PNAS. […] Each assay contains 40 mM Hepes (pH 7.4), 17 mM MgCl2, 45 mM KCl, 3.4 mM 2-mercaptoethanol, 6 mM ATP, 6% glycerol, 350 μM E. coli tRNA (Roche), 0.09 mg/mL BSA, 910 nM Methionyl-tRNA synthetase (MetRS) and amino acids in 100-1,000 μM range. […] Samples are transferred to ice bath to stop the reactions and then small aliquot (2 μL) samples are precipitated using 500 μL of 5% cold TCA onto Whatmann filter papers and vacuumed and then dried under a heat lamp. Radioactivity of each sample is measured as counts per minute (CPM), as compared to controls (without the analog). Results for the S enantiomer of I-A ((S)-2-amino-4-(methylthio)butane-1-sulfonic acid hydrochloride) are shown below in Table 11.

[2] = system: E. coli (DH5-α); experiment: Growth inhibition of E. coli by methionine analogs, 96-well plate, OD 550 nm over time; assay type: cell-based; settings: E. coli, 12.5 mM, OD 550 nm
Description: Comparative Minimum Bactericidal Concentration (MBC) results provide estimates of the susceptibility of various test articles against test organisms. A modification of the […] (NCCL) Standardized Protocol “Methods for dilution antimicrobial susceptibility tests for bacteria that grow aerobically” was used in these studies. Sterile Phosphate Buffer Saline (PBS) at pH 7.0 (vehicle) was used as the diluent. Use of such diluent allows for the determination of the intrinsic activity of our test articles in the absence of any interfering molecules. Specifically, each test article was diluted using 2-fold serial dilution in 96-well plate to give a range of concentrations from approximately 50 mM to 0.05 mM in a final volume of 0.1 mL. Each dilution was inoculated with 5×10^5 CFU/mL test bacteria. The initial optical density as absorbance of each well was read at OD 550 nm using ThermoMax plate reader. […] At various time intervals post-treatment, OD reading at 550 nm was recorded at various time intervals. FIG. 1A and Table 1 show time dependent growth inhibition capability of analogs on E. coli at 12.5 mM. For FIGS. 1A and 1B, the 96-well plate format was used to culture E. coli (DH5-α) cells in M9 minimal media supplemented with glucose (M9) or same media supplemented with a range of concentrations of various analogs. Experiments were carried out in duplicate.

[3] = system: L929 cells; settings: mouse, 60 min
Experimental: Cytotoxicity is assessed by a colorimetric assay system (Sagripanti J-L, Bonifacino A. Cytotoxicity of Liquid Disinfectants. Surgical Infections, 2000; 1(1): 3-14, the content of which is hereby incorporated by reference, particularly with respect to the experimental methods described therein), using 3′-(phenylamino-carbonyl)-3,4-tetrazo-lium-bis(4-methoxy-6-nitro) benzene sulfonic acid hydrate (XTT), ProCheck™ cell viability assay (Evaluation of a soluble tetrazolium/formazan assay for cell growth and drug sensitivity in culture using human and other tumor cell lines described by Scudiero D A, Shoemaker R A H, Paul K D, Monks A, Tierney S, Nofziger T H, Currens M J, Seniff D, Boyd M R. Cancer Res. 1988 Sep. 1; 48(17):4827-33, the content of which is hereby incorporated by reference, particularly with respect to the experimental methods described therein). Similar approaches for determining the cell viability are used by other investigators. Three cell types are used: […] (L929), primary human skin fibroblast and primary human keratinocyte cells cultured in Dulbecco Modified Eagle's Medium and Keratinocyte defined medium with corresponding growth factors plus antibiotics. Cells are trypsinized and counted under the microscope and seeded at 1000-to-2000 cells per well of a flat-bottom 96-well plate. Cells are allowed to grow overnight at 37° C. Tissue culture media is removed the following day and cells are rinsed with fresh media 1× and then left in 50 μL of tissue culture media. Test articles are prepared as 2-fold dilutions and 200 μL is added into each set of 4-wells (total volume per well is 250 μL). Cells are exposed to test articles for 60 min at room temperature. Immediately after the exposed time, test article from each well is removed and cells are fed with 250 μL of fresh media. Plates are incubated at 37° C. for 18-20 hr. The following day media is removed again and replaced with 100 μL/well of fresh media containing 10/100 μL XTT-reagent. Cells are incubated under growth conditions (5% CO2 at 37° C. humidified incubator), protected from light, until color development is achieved. Absorbance is read at 450 nm with reference wavelength at 750 nm using Molecular Device ThermoMax Plate reader, blanking the plate on the medium-only assay blank wells. Untreated cells receiving XTT reagents-only serve as positive cell proliferation control.
(§1) Results are expressed as percentage of cells surviving the treatment as compared to PBS.

[4] = system: CV-1 (African Green Monkey Kidney Cells) cells; settings: 60 min, pH 7
Experimental: Preliminary studies of cytotoxicity were performed in a mammalian cell viability assay.
CV-1 cells were propagated in DMEM plus 8% FBS according to supplier's recommendations. CV-1 cells were seeded at 1.5×10^4 cells per well in 96-well plates and incubated overnight at 37° C. On the day of testing, growth medium was aspirated from each well, and 20 μl fresh medium was added per well. Test articles were diluted from 50 mM to 0.05 mM by 2-fold serial dilution using PBS at pH 7.0 for each test article. After which 80 μl of each dilution was added to each well for a total volume of 100 μl per well. Following 60 minutes exposure at 37° C., test articles were aspirated and replaced with fresh 100 μl tissue culture media and incubated for 24 hours at 37° C. Next day cell culture media was removed and cell viability was determined by addition of WST-8 (Dojindo, Japan) reagent and the absorption at 450 nm read spectrophotometrically. Orange-red formazan, which is produced by live cells, is a direct measure of cell viability in this assay.
as §1

Sequence of E. coli Methionyl-tRNA synthetase (P00959 whole entry): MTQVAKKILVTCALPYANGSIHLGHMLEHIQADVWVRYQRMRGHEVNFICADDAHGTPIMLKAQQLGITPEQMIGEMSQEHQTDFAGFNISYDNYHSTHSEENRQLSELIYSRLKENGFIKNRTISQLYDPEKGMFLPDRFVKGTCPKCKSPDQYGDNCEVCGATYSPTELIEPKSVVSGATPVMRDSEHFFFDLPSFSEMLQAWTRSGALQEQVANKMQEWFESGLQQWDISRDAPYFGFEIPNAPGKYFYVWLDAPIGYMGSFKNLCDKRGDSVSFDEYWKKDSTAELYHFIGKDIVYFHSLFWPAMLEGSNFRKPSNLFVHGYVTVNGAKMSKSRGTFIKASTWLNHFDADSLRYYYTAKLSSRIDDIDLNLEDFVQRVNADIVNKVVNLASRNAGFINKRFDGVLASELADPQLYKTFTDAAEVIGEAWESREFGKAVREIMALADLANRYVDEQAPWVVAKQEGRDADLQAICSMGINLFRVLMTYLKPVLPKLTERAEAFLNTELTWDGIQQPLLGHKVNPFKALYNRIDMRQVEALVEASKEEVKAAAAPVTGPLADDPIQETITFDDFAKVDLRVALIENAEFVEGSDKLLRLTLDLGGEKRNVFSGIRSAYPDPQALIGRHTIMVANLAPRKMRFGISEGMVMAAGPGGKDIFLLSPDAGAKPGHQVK

Row | SMILES | Absorbance ([2]; well 12, time 0 hrs) | Absorbance ([2]; well 12, time 1 hrs) | Absorbance ([2]; well 12, time 2 hrs) | Absorbance ([2]; well 12, time 3 hrs) | Absorbance ([2]; well 12, time 3.75 hrs) | Absorbance ([2]; well 12, time 5 hrs) | Absorbance ([2]; well 12, time 6.5 hrs) | Absorbance ([2]; well 12, time 7.25 hrs) | Absorbance ([2]; well 12, time 23 hrs) | Percentage of Surviving L929 cells relative to control ([3]; 0.1 mM) | Percentage of Surviving L929 cells relative to control ([3]; 0.2 mM) | Percentage of Surviving L929 cells relative to control ([3]; 0.39 mM) | Percentage of Surviving L929 cells relative to control ([3]; 0.78 mM) | Percentage of Surviving L929 cells relative to control ([3]; 1.56 mM) | Percentage of Surviving L929 cells relative to control ([3]; 3.13 mM) | Percentage of Surviving L929 cells relative to control ([3]; 6.25 mM) | Percentage of Surviving L929 cells relative to control ([3]; 12.5 mM) | Percentage of Surviving L929 cells relative to control ([3]; 25 mM) | Percentage of Surviving L929 cells relative to control ([3]; 50 mM) | Percentage of Surviving CV-1 cells relative to PBS ([4]; 0.1 mM) | other results
1 | CSCC[C@H](N)CS(=O)(=O)O.Cl [I-A, (S)-2-amino-4-(methylthio)butane-1-sulfonic acid hydrochloride] | – | – | – | – | – | – | – | – | – | – | – | – | – | – | – | – | – | – | – | – | Radioactivity, Methionyl-tRNA synthetase tRNA charging ([1]; Experiment #1, I-A 0.04 mM, 1 Minute): 2,476 Counts Per Minute; Radioactivity, Methionyl-tRNA synthetase tRNA charging ([1]; Experiment #1, I-A 0.04 mM, 10 Minutes): 3,466 Counts Per Minute; Radioactivity, Methionyl-tRNA synthetase tRNA charging ([1]; Experiment #1, I-A 0.20 mM, 1 Minute): 2,333 Counts Per Minute; Radioactivity, Methionyl-tRNA synthetase tRNA charging ([1]; Experiment #1, I-A 0.20 mM, 10 Minutes): 3,147 Counts Per Minute; Radioactivity, Methionyl-tRNA synthetase tRNA charging ([1]; Experiment #1, I-A 1.00 mM, 1 Minute): 2,372 Counts Per Minute; Radioactivity, Methionyl-tRNA synthetase tRNA charging ([1]; Experiment #1, I-A 1.00 mM, 10 Minutes): 3,218 Counts Per Minute; Radioactivity, Methionyl-tRNA synthetase tRNA charging ([1]; Experiment #1, I-A 5.00 mM, 1 Minute): 2,007 Counts Per Minute; Radioactivity, Methionyl-tRNA synthetase tRNA charging ([1]; Experiment #1, I-A 5.00 mM, 10 Minutes): 2,891 Counts Per Minute; Radioactivity, Methionyl-tRNA synthetase tRNA charging ([1]; Experiment #2, I-A 0.25 mM, 10 Minutes): 1,701 Counts Per Minute; Radioactivity, Methionyl-tRNA synthetase tRNA charging ([1]; Experiment #2, I-A 1.25 mM, 10 Minutes): 1,907 Counts Per Minute; Radioactivity, Methionyl-tRNA synthetase tRNA charging ([1]; Experiment #2, I-A 5.00 mM, 10 Minutes): 1,575 Counts Per Minute; Radioactivity, Methionyl-tRNA synthetase tRNA charging ([1]; Experiment #2, I-A 12.5 mM, 10 Minutes): 1,672 Counts Per Minute
2 | CSCC[C@H](N)C(=O)NO.Cl [I-AA, (S)-2-amino-N-hydroxy-4-(methylthio)butanamide hydrochloride] | 0.084 | 0.113 | 0.130 | 0.133 | 0.109 | 0.118 | 0.110 | 0.100 | 0.130 | 100% | 94% | 89% | 87% | 87% | 87% | 85% | 86% | 85% | 82% | 97% | Percentage of Surviving CV-1 cells relative to PBS ([4]; 0.2 mM): 95%; Percentage of Surviving CV-1 cells relative to PBS ([4]; 0.39 mM): 96%; Percentage of Surviving CV-1 cells relative to PBS ([4]; 0.78 mM): 96%; Percentage of Surviving CV-1 cells relative to PBS ([4]; 1.56 mM): 100%; Percentage of Surviving CV-1 cells relative to PBS ([4]; 3.13 mM): 100%; Percentage of Surviving CV-1 cells relative to PBS ([4]; 6.25 mM): 99%; Percentage of Surviving CV-1 cells relative to PBS ([4]; 12.5 mM): 101%; Percentage of Surviving CV-1 cells relative to PBS ([4]; 25 mM): 99%; Percentage of Surviving CV-1 cells relative to PBS ([4]; 50 mM): 72%
3 | CSCC[C@H](N)C(=O)O [Methionine] | 0.085 | 0.123 | 0.164 | 0.168 | 0.151 | 0.191 | 0.202 | 0.202 | 0.427 | 104% | 101% | 100% | 95% | 87% | 86% | 84% | 85% | 85% | 81% | 98% | Percentage of Surviving CV-1 cells relative to PBS ([4]; 0.2 mM): 96%; Percentage of Surviving CV-1 cells relative to PBS ([4]; 0.39 mM): 95%; Percentage of Surviving CV-1 cells relative to PBS ([4]; 0.78 mM): 96%; Percentage of Surviving CV-1 cells relative to PBS ([4]; 1.56 mM): 99%; Percentage of Surviving CV-1 cells relative to PBS ([4]; 3.13 mM): 100%; Percentage of Surviving CV-1 cells relative to PBS ([4]; 6.25 mM): 100%; Percentage of Surviving CV-1 cells relative to PBS ([4]; 12.5 mM): 99%; Percentage of Surviving CV-1 cells relative to PBS ([4]; 25 mM): 99%; Percentage of Surviving CV-1 cells relative to PBS ([4]; 50 mM): 66%
